Measurements reported in ChEMBL document CHEMBL1201862, “PubChem BioAssay data set” (2004).
Active and inactive are the calls of the source.

Tests used:
[1] = Luminescence Cell-Based Dose Response HTS to Identify Activators of Luciferase Translation or Activity in H4 […] Cells. [Related pubchem assays: 1829 (Project Summary), 1814 (Primary HTS)]; format: functional
H4 = assay: Luminescence Cell-Based Dose Response HTS to Identify Activators of 5'UTR Stem-Loop Driven Prion Protein mRNA Translation in H4 Neuroglioblastoma Cells. [Related pubchem assays: 1829 (Project Summary), 1814 (Primary HTS)]; format: functional; settings: Homo sapiens
[2] = target: Luciferin 4-monooxygenase (Photinus pyralis, UniProt P08659); assay: firefly luciferase enzyme inhibitors, dose response, biochemical, luminescence (AID 1891)
[3] = Luminescence Cell-Based Dose Confirmation HTS to Identify Inhibitors of Platelet Dense Granule Release. [Related pubchem assays: 1663 (Primary HTS), 1678 (Summary of Project)]; format: functional
[4] = target: T1, Heat shock factor protein 1 (Mus musculus, UniProt P38532); assay: inhibition of MG132-induced HSE-luciferase signal, confirmation, cell-based, NIH3T3, luminescence, dose retest (AID 2382); format: functional;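 further: NIH3T3 fibroblasts with HSF1-driven luciferase reporter stressed by proteasome inhibitor MG132; luminescence from HSF1-driven luciferase expression after 8 hours of MG132 stress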
T1 sequence (P38532 whole entry): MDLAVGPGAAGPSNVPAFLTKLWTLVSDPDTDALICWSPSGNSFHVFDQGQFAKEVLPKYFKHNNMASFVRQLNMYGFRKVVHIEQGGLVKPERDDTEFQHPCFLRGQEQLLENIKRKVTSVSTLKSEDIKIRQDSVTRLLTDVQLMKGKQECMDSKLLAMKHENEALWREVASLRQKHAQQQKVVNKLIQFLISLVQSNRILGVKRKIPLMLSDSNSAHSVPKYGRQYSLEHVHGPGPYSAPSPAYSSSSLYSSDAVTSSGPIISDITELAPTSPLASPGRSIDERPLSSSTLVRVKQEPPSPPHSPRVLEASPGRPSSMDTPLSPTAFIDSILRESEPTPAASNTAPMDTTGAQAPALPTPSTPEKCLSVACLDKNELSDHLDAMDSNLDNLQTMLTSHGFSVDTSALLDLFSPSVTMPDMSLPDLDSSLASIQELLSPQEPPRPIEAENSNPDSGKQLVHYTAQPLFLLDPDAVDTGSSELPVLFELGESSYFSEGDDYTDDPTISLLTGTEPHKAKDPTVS

[5] = growth suppression of beta-catenin-knockout colon cells, dose response, cell-based, HCT116, human colon tumor (AID 1045); format: functional;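 further: HCT116 colon tumor cells with beta catenin knocked out; cells exposed to compound for 60 hours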
[6] = growth suppression of PTEN-null colon cells, dose response, cell-based, HCT116 PTEN knockout (AID 1047); format: functional;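 further: HCT116 colon tumor cells with PTEN knocked out; cells exposed to compound for 60 hours before readout; potency for loss of cell viability measured by luminescence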
[7] = Luminescence Cell-Based Dose Retest to Confirm Inhibitors of Cancer Stem Cells. [Related pubchem assays (depositor defined):AID2717, AID2721]; format: functional; settings: Homo sapiens
Cytochrome P450 3A4 = Cytochrome P450 3A4 (Homo sapiens, UniProt P08684);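 further: CYP3A4 tested as one member of a cytochrome P450 panel screen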
Cytochrome P450 1A2 = target: T2, Cytochrome P450 1A2 (Homo sapiens, UniProt P05177);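 further: PubChem cytochrome P450 panel assay, CYP1A2 panel member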
T2 sequence (P05177 whole entry): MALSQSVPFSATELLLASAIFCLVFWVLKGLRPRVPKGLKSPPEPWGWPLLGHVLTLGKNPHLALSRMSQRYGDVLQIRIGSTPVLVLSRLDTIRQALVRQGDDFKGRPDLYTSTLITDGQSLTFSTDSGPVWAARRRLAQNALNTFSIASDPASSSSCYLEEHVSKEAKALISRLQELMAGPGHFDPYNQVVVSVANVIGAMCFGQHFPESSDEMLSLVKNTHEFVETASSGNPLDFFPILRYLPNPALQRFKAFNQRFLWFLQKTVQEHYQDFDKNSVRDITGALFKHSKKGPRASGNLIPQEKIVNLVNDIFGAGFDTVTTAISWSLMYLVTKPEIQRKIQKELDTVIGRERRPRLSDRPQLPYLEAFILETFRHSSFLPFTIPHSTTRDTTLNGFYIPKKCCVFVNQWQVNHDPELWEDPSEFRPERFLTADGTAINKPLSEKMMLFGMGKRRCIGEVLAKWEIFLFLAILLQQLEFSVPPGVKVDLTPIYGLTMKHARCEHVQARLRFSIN

[8] = cytotoxicity toward NIH3T3 fibroblasts, dose response, counter-screen, cell-based, ATP luminescence, mouse fibroblasts (AID 2010); format: functional;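 further: cells exposed to compound for about 90 hours before reading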
INS1 = assay: beta cell apoptosis inhibitors, cytokine rescue, dose response, luminescence, retest (AID 449756); format: functional, cell-based; settings: Rattus norvegicus;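 further: cell death triggered by IL-1 beta plus TNF-alpha plus IFN-gamma mixture; protective hits raise ATP signal compared with cytokine alone wells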
[9] = inhibitors of intracellular T. cruzi replication, confirmation, NIH3T3 host cells, beta-gal luminescence (AID 2044); format: functional, cell-based;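 further: intracellular parasites grown in NIH/3T3 mouse fibroblasts as host cells; luminescent beta-galactosidase reporter signal from transgenic T. cruzi replicating inside host cells; inhibitors lower the luminescence signal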
Cytochrome P450 2C19 = Cytochrome P450 2C19 (Homo sapiens, UniProt P33261); assay: Cytochrome panel assay with activity outcomes. Panel member name: p450-cyp2c19 Compounds with AC50 equal or less than 10 uM are considered active; format: functional; settings: read-out: AC50
Cytochrome P450 2C19, sequence (P33261 whole entry): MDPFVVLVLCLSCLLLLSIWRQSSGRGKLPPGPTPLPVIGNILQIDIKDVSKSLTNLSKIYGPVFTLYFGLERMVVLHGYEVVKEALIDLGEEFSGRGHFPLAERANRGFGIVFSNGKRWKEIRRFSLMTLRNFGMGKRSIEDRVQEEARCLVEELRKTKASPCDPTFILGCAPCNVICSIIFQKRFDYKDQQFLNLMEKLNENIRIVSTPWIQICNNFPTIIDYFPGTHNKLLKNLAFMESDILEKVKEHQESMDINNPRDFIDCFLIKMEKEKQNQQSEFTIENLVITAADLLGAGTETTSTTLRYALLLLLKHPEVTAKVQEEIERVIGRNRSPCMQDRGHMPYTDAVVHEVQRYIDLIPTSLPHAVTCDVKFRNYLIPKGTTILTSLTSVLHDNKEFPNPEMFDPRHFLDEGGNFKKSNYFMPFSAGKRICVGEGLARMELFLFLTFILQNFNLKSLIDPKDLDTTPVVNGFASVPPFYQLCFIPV

Cytochrome P450 3A4, sequence (P08684 whole entry): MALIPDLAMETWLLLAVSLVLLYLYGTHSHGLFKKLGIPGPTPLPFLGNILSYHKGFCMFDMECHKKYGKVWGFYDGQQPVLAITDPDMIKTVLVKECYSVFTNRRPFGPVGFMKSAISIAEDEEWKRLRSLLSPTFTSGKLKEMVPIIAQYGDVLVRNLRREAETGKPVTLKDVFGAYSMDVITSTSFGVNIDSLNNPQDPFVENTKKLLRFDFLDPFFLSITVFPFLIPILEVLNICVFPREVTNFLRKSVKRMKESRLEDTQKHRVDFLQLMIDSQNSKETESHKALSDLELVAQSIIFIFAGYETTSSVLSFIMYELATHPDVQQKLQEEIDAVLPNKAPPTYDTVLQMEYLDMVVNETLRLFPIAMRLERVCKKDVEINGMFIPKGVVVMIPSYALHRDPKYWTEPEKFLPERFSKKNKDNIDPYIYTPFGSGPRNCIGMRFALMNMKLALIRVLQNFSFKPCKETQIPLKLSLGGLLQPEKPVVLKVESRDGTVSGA
Luciferin 4-monooxygenase, sequence (P08659 whole entry): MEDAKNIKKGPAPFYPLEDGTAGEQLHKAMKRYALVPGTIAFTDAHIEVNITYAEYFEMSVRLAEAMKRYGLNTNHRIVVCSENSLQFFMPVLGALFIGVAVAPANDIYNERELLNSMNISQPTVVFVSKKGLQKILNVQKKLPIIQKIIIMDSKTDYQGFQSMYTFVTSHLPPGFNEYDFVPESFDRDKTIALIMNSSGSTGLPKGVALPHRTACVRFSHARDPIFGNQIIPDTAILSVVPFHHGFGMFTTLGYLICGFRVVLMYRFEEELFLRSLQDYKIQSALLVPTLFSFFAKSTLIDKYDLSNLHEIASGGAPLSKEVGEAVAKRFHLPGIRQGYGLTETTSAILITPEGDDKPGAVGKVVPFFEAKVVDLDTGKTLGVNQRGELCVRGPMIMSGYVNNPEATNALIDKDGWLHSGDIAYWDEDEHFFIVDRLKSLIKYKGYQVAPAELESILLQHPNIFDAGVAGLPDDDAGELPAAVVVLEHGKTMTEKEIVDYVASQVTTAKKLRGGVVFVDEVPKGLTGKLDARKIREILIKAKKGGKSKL

Compound: CCOc1ccc(C(=O)CSc2nnc3ccccn23)cc1
- EC50 [1]: 35.7 µM (active)
- EC50 (H4): > 120 µM (not active)

Compound: COc1ccc(CCn2c(=N)c(C(=O)NCC3CCCO3)cc3c(=O)n4ccccc4nc32)cc1OC (centres undefined)
- EC50 [2]: > 112 µM (not active)
- EC50 [3]: > 112 µM (not active)

Compound: CC1CCCN(C(=O)C2(NC(=O)Nc3cccc(F)c3)CCCCC2)C1 (centres undefined)
- EC50 [4]: > 195 µM (not active)

Compound: Oc1nc2cc3c(cc2cc1C(c1nnnn1C1CCCC1)N1CCSCC1)OCCO3 (centres undefined)
- EC50 [5]: 94.3 µM (active)
- EC50 [6]: 28.9 µM (active)

Compound: Fc1ccc(-c2nc3c(-c4ccc(Cl)cc4)cnn3cc2CCN2CCOCC2)cc1
- EC50 [4]: > 195 µM (not active)

Compound: O=C(CSc1nc(-c2ccccc2)cc(C(F)(F)F)n1)c1cccc([N+](=O)[O-])c1
- AC50 [7]: 5.41 µM (active)

Compound: COc1cccc(Nc2ncc3nc(CCc4ccccc4)c(=O)n(CCC#N)c3n2)c1
- AC50 (Cytochrome P450 3A4): 2 µM (inconclusive)

Compound: COc1cc([C@@H]2c3cc4c(cc3[C@@H](O)[C@H]3COC(=O)[C@H]23)OCO4)cc(OC)c1O[Si](C)(C)C(C)(C)C
- AC50 [7]: 3.64 µM (active)

Compound: COCCNc1ncnc2ccc(-c3ccccc3CN(C)C)cc12
- AC50 (Cytochrome P450 3A4): 31.6 µM (inconclusive)
- AC50 (Cytochrome P450 1A2): 25.1 µM (inconclusive)

Compound: C=C(C)COc1ccc2c(C)c(CC(=O)OC)c(=O)oc2c1C
- EC50 [5]: 31.9 µM (active)
- EC50 [6]: 81.2 µM (active)

Compound: Cc1ccc(C(=O)Nc2ccc(Br)c(C(F)(F)F)c2)cc1
- EC50 [5]: 23.8 µM (active)
- EC50 [6]: 19.7 µM (active)

Compound: CC(C)(C)C(=O)OCc1nc(-c2ccc3c(c2)OCCO3)cs1
- EC50 [4]: > 195 µM (not active)

Compound: CCN(CC)C(=O)CN1C(=O)/C(=C/c2ccccc2)SC1=S
- EC50 [4]: > 195 µM (not active)

Compound: CCCCC(CC)CN1C(=O)/C(=C/c2c[nH]nc2-c2ccccc2)SC1=S (centres undefined)
- EC50 [5]: 21.1 µM (active)
- EC50 [6]: 21.3 µM (active)

Compound: O=C(c1ccccc1-c1nc(-c2ccccc2)no1)N1CCOCC1
- AC50 (Cytochrome P450 3A4): 28.2 µM (inconclusive)
- AC50 (Cytochrome P450 1A2): 39.8 µM (inconclusive)

Compound: Cc1ccc2nc(-c3ccc(NS(=O)(=O)c4c(C)n(C)c(=O)n(C)c4=O)cc3)sc2c1
- EC50 [1]: 2.06 µM (active)

Compound: COc1ccc(NC(=O)CN(C)CC(=O)Nc2ccc3c(c2)CCC3)cc1
- EC50 [4]: > 195 µM (not active)

Compound: COc1ccccc1N1CCN(CCN2C(=O)c3ccccc3C(C)(C)C2=O)CC1
- AC50 (Cytochrome P450 3A4): 15.8 µM (inconclusive)
- AC50 (Cytochrome P450 1A2): 39.8 µM (inconclusive)

Compound: COc1ccc(NCc2nnc(SCC(=O)Nc3cc(C(F)(F)F)ccc3Cl)o2)cc1
- EC50 [4]: > 195 µM (not active)

Compound: Nn1c(SCC(=O)NC2CCCC2)nnc1-c1ccccc1F
- EC50 [4]: > 195 µM (not active)

Compound: O=C(/C=C/c1ccc(Br)o1)NCCCN1CCOCC1
- EC50 [4]: > 195 µM (not active)

Compound: COc1cc(CNc2ccc3[nH]c(O)nc3c2)ccc1OCC(=O)NC(C)(C)C
- EC50 [3]: 12.4 µM (active)

Compound: Cc1c(C=C2C(=O)N(C)C(=O)N(C)C2=O)c(=O)n(-c2ccccc2)n1C
- EC50 [4]: > 195 µM (not active)

Compound: CCc1ccc(/C=N/NC(=O)c2nnn(-c3nonc3N)c2CN2CCOCC2)cc1
- EC50 [2]: > 112 µM (not active)
- EC50 [3]: 52.9 µM (active)

Compound: Cc1ccc2[nH]c(/C(C#N)=C\c3ccc(Oc4ccc([N+](=O)[O-])cn4)cc3)nc2c1
- EC50 [5]: 46.9 µM (active)
- EC50 [6]: 76.4 µM (active)

Compound: Cc1nc(SCC(=O)NCC2CCCO2)nc(O)c1C (centres undefined)
- EC50 [4]: > 195 µM (not active)

Compound: O=C(CC1Nc2ccccc2NC1=O)Nc1ccccc1NC(=O)CC1Nc2ccccc2NC1=O (centres undefined)
- EC50 [4]: > 195 µM (not active)

Compound: COc1ccc(-c2nc(NC(=O)c3cc(C(C)(C)C)nn3C)sc2C)cc1
- EC50 [8]: 8.58 µM (active)
- AC50 (INS1): 10.2 µM (active)
- AC50 [7]: 7.12 µM (active)
- EC50 [9]: 1.76 µM (active)

Compound: NC(=O)C1CCN(CC(=O)Nc2nc(-c3ccccc3)cs2)CC1
- EC50 [4]: > 195 µM (not active)

Compound: Cc1occc1-c1nnc(SCC(=O)Nc2ccccc2)n1C
- EC50 [4]: > 195 µM (not active)

Compound: CCCCn1c(=O)c(C(=O)NCc2ccc(Cl)cc2)c(O)c2ccccc21
- AC50 [7]: 5.25 µM (active)

Compound: COc1ccc(-c2nc3scc(-c4ccc(OC)c(OC)c4)c3c(=O)o2)cc1
- EC50 [5]: 16.4 µM (active)
- EC50 [6]: 24.7 µM (active)

Compound: O=C1NC(=O)N(CCC2=CCCCC2)C(=O)/C1=C\NNc1ccccc1
- AC50 [7]: 2.46 µM (active)

Compound: CCOC(=O)N1CCC(NC(=O)c2cc(S(=O)(=O)N3CCCC3)cn2C)CC1
- AC50 (Cytochrome P450 3A4): 14.1 µM (inconclusive)
- AC50 (Cytochrome P450 2C19): 8.91 µM (inconclusive)

Compound: O=C(COc1ccc(Cl)cc1Cl)NN=C1c2ccccc2-c2ccccc21
- EC50 [5]: 6.99 µM (active)
- EC50 [6]: 7.45 µM (active)

Compound: [O-]/[N+](=C/c1ccc(F)cc1)c1ccc(Cl)cc1
- EC50 [2]: > 112 µM (not active)
- EC50 [3]: > 112 µM (not active)

Compound: O=C(Oc1ccccc1Cl)c1ccc(-n2cncn2)nc1
- EC50 [4]: > 195 µM (not active)

Compound: O=C(O)CC(NC(=O)C(c1ccccc1)c1ccccc1)c1ccco1 (centres undefined)
- EC50 [2]: > 112 µM (not active)
- EC50 [3]: > 112 µM (not active)

Compound: O=C(c1ccccc1)c1cc2cc(Cl)ccc2[nH]1
- EC50 [1]: 94.6 µM (active)
- EC50 (H4): 13.9 µM (active)

Compound: CCCn1c(SCC(=O)N2CCCC(C)C2)nnc1-c1ccccn1 (centres undefined)
- EC50 [2]: > 112 µM (not active)
- EC50 [3]: > 112 µM (not active)

Compound: Cc1ccc(Oc2nc(CN3CCOCC3)nc3sc4c(c23)CCC(C)C4)cc1C (centres undefined)
- EC50 [4]: > 195 µM (not active)
- AC50 [7]: 6.74 µM (active)

Compound: Cc1ccc(C)c(Nc2nc(N)c3ccccc3n2)c1
- EC50 [2]: 12.2 µM (active)
- EC50 [3]: 11 µM (active)

Compound: COc1ccccc1N1CCN(CCn2c(=O)[nH]c3c([nH]c4ccccc43)c2=O)CC1
- AC50 (Cytochrome P450 3A4): 15.8 µM (inconclusive)
- AC50 (Cytochrome P450 1A2): 39.8 µM (inconclusive)

Compound: CCOc1ccc(NC(=O)Nc2cc(C)ccc2F)cc1
- EC50 [2]: 1.02 µM (active)
- EC50 [3]: 1.81 µM (active)

Compound: COc1cccc(-c2nnc(-c3ccco3)o2)c1
- EC50 [2]: > 112 µM (not active)
- EC50 [3]: 40.9 µM (active)

Compound: Cc1ccc(-c2nc3cccnc3o2)cc1NC(=O)COc1ccc(Cl)cc1C
- EC50 [5]: 14.6 µM (active)
- EC50 [6]: 5.15 µM (active)

Compound: O=S(=O)(N/N=C1/CC(c2ccccc2)Oc2ccccc21)c1ccc(Br)cc1 (centres undefined)
- AC50 [7]: 2.79 µM (active)

Compound: CN(C)c1ccc(/C=N/NC(=O)C2COc3ccccc3O2)o1 (centres undefined)
- EC50 [4]: > 195 µM (not active)

Compound: O=c1c2ccccc2nc(COc2ccccc2)n1/N=C/c1c[nH]nc1-c1ccccc1
- EC50 [5]: 24.5 µM (active)
- EC50 [6]: 19.6 µM (active)

Compound: CC(C)NC(=O)N1CCCC2(CCN(C(=O)c3ccco3)CC2)C1
- AC50 (Cytochrome P450 3A4): 25.1 µM (inconclusive)

Compound: Cn1c(SCC(=O)N=Nc2c(O)[nH]c3ccccc23)nc2ccccc21
- EC50 [2]: > 112 µM (not active)
- EC50 [3]: > 112 µM (not active)

Compound: COc1ccc(/C=N/Nc2ncccc2[N+](=O)[O-])c(OC)c1
- EC50 [2]: 2.42 µM (active)
- EC50 [3]: 2.57 µM (active)

Compound: CN(C)c1ccc(CNC(=O)c2cc(S(=O)(=O)N3CCOCC3)cn2C)cc1
- EC50 [2]: > 112 µM (not active)
- EC50 [3]: > 112 µM (not active)

Compound: CCOc1ccc(C2=NN=C(c3ccc(N4CCOCC4)cc3)c3ccccc3N2)cc1
- EC50 [1]: 30.1 µM (active)
- EC50 (H4): > 120 µM (not active)

Compound: Cc1nnc2sc(-c3ccc(-c4ccc(Cl)c(C(F)(F)F)c4)o3)nn12
- EC50 [2]: > 112 µM (not active)
- EC50 [3]: > 112 µM (not active)

Compound: CC(C)(C)NC(=O)Cn1nnc(-c2ccc(OCc3c(F)cccc3Cl)cc2)n1
- AC50 [7]: 1.33 µM (active)
